Assay [1] concerns hMSC-Human Mesenchymal Stem Cells. Put plainly: Mesenchymal stem cell (MSC) proliferation-promoting effect. Conditions: 0.001 to 3 nmol/L, bFGF-free custom culture medium; viable cells normalized to 1 nmol/L bFGF = 100, negative control = 0. Format: cell-based. The protocol: The mesenchymal stem cell (MSC) proliferation-promoting effect of the cyclic peptide complex was evaluated.
The MSC was activated and subcultured according to the recommended protocol of FUJIFILM Irvine Scientific, Inc. using hMSC-Human Mesenchymal Stem Cells (Lonza, PT-2501) and PRIME-XV MSC Expansion XSFM (FUJIFILM Irvine Scientific, Inc., 91149) as a culture medium. MSCs that had been subcultured 1 to 4 times were used for the evaluation.
The evaluation of the proliferation-promoting effect of MSC was performed by the following method. First, a culture medium (hereinafter, referred to as a custom culture medium) in which bFGF was removed from PRIME-XV MSC Expansion XSFM (FUJIFILM Irvine Scientific, Inc., 91149) was prepared. Next, Prime-XV Human Fibronectin (FUJIFILM Irvine Scientific, Inc., 31002) was dissolved in PBS (Fujifilm Wako Pure Chemical Corporation, 164-23551), 2 μg/cm^2 of the solution was added to a 96-well plate used for evaluation, and the 96-well plate was allowed to stand at room temperature for 3 hours to coat the 96-well plate with fibronectin. […] The number of viable cells was calculated from the imaging data and normalized by setting the number of viable cells in the well to which 1 nmol/L bFGF was added to 100, and setting the number of viable cells in the negative control well to 0.

The subject of assay [2] is bovine myoblasts. Description: Bovine cell (myoblast) proliferation-promoting effect. Format: cell-based, Japanese Black cattle. The note with it: 0.03 to 10 nmol/L, 4 days; viable cells normalized to 30 ng/mL bFGF = 100, negative control = 0. The procedure: The bovine cells (myoblasts) proliferation-promoting effect of the cyclic peptide complex was evaluated.
Bovine myoblasts were separated from bovine muscle tissue by the following method. First, muscle tissue of Japanese Black cattle was finely chopped in HBSS (−) (phenol red-free) (FUJIFILM Wako Pure Chemical Corporation, 085-09355), and then pronase from Streptomyces griseus (Sigma-Aldrich, 10165921001) was added thereto to a final concentration of 1 mg/mL, and the mixture was allowed to stand at 37° C. for 1 hour. After allowing to stand, HBSS containing 10% FBS was added thereto, and the cells were acquired by centrifugation. The acquired cells were suspended in D-MEM (high glucose) (containing L-glutamine and phenol red) (FUJIFILM Wako Pure Chemical Corporation, 044-29765) containing 10% final concentration of bovine serum and 30 ng/mL bFGF. Suspended cells were cultured in a culture flask coated with an iMatrix-511 solution (FUJIFILM Wako Pure Chemical Corporation, 381-07363) at 0.55 μg/cm^2. […]
The evaluation of the proliferation-promoting effect on bovine myoblasts was performed by the following method. […] The number of viable cells was calculated from the imaging data and normalized by setting the number of viable cells in the well to which 30 ng/mL bFGF was added to 100, and setting the number of viable cells in the negative control well to 0.

Assay [3] has as its system hMSC-Human Mesenchymal Stem Cells. Put plainly: Effect of maintaining MSC undifferentiated potency (gene expression). Format: cell-based. The note with it: cyclic peptide complex 3 nmol/L or bFGF 1 nmol/L, normalized to 1 nmol/L bFGF = 1, bFGF compared with negative control. The protocol:
The effect of maintaining mesenchymal stem cell (MSC) undifferentiated potency of the cyclic peptide complex was evaluated.
MSC was prepared in the same manner as in Example 7.
The evaluation of the effect of maintaining the MSC undifferentiated potency was performed by the following method. First, a culture medium (hereinafter, referred to as a custom culture medium) in which bFGF was removed from PRIME-XV MSC Expansion XSFM (FUJIFILM Irvine Scientific, Inc., 91149) was prepared. Next, Prime-XV Human Fibronectin (FUJIFILM Irvine Scientific, Inc., 31002) was dissolved in PBS (Fujifilm Wako Pure Chemical Corporation, 164-23551), 2 μg/cm^2 of the solution was added to a 12-well plate used for proliferation, and the 12-well plate was allowed to stand at room temperature for 3 hours to coat the 12-well plate with fibronectin. Thereafter, the MSCs subjected to the subculture were peeled using Tryple Express (Thermo, 12604-013), washed once with a custom culture medium, suspended in a custom culture medium in which a cyclic peptide complex or bFGF (R&D Systems, 3718-GMP) was diluted to final concentrations of 3 nmol/L and 1 nmol/L, and seeded on a 12-well plate coated with fibronectin. In this case, conditions in which the cyclic peptide complex and bFGF were not added as a negative control were prepared. After culturing at 37° C. (5% CO2) for 2 nights, the culture medium was replaced by removing the supernatant of the culture medium and adding the same amount of a culture medium prepared to have the same composition as the removed culture medium. After further culturing at 37° C. (5% CO2) for 2 nights, RNA was extracted using an RNeasy Plus Mini Kit (Qiagen, 74136) according to the manufacturer's protocol. […] The expression level of each gene was normalized by setting the expression level of the well to which 1 nmol/L bFGF was added to 1.

Numbered stars: 1 amine (or outer) side, 2 acyl side, 3 side chain; on linkers, the order of the positions; unused ones are H or OH. Bridge positions count the residues as written; N and C are the ends. Square brackets hold non-standard residues; d marks the D form. Ends that are not written are not given here. I, II: the chains in the order shown. ξ: configuration not given here. ξY = NC(Cc1ccc(O)cc1)C(=O)O; ξR = N=C(N)NCCCC(N)C(=O)O; Dap = NC[C@H](N)C(=O)O; X1 = O=C(C[*:1])[*:2]; ξK = NCCCCC(N)C(=O)O; ξP = O=C(O)C1CCCN1; ξC = NC(CS)C(=O)O

Turning to “I: H[ξC]SYERLEFHGHEAPFRV[ξK]V[Dap]-NH2 / II: HCS[ξY]E[ξR]LQFHGHEA[ξP]FRVK[dV] (linker I:2-I:19, II:2-II:19 via X1; amide I:21-II:C) [SEQ ID NO: 393, (H-(C)-SYERLQFHGHEAPFRV-(K(acetyl))-V)2-Dap]”, the MSC proliferation action entry in assay [1] is “the same degree of MSC proliferation action as bFGF”. Further, in assay [2], the “bovine myoblast proliferation action” value is recorded as “about 80%”. Further, the “expression level of Sox2” value in assay [3] is listed as “the same degree of a gene expression level as bFGF”.
